Columns and labels:
[1] = test system: Porcine Smooth Muscle Cell; assay: Porcine smooth muscle cell antiproliferation, 3H thymidine incorporation; assay type: cell-based; conditions: Sus scrofa, growth factor or serum stimulated, 24-36 h at 37° C., compound added with 3H thymidine and serum / growth factor
Protocol: Effects of Compounds on Cell Proliferation Using ^3 H Thymidine Incorporation
Human and porcine smooth muscle cells were tested in early passage (generally passage 3-7) at sub-confluent conditions. Cultures were grown in 16 mm (24 well) multi-well culture dishes in medium 199 supplemented with 10% fetal bovine serum and 2% antibiotic / antimycotic. At sub-confluence, the cells were placed in a defined serum free medium (AIM-V; Gibco) for 24-48 h prior to initiating the experimental protocol.
Compounds were added to each well at 50 fold dilution (20 AL / well) and the plates were incubated for 24-36 h at 37° C. in 5% CO2. Compounds were initially dissolved in 50% ethanol and serially diluted into media. Compounds were routinely evaluated at concentrations from 1 to 100 μM. As a control, grade II porcine intestinal mucosal heparin (sodium salt) was routinely evaluated in all cell preparations at concentrations from 0.1 to 100 μg/mL.
At the completion of the test procedure, plates were placed on ice, washed three times with ice cold phosphate buffered saline (PBS) and incubated in ice cold 10% trichloroacetic acid (TCA) got 30 min to remove acid soluble proteins. Solution was transferred to scintillation vials containing 0.4 N HCl (500 μL/ vial to neutralize NaOH) and each well was rinsed two times with water (500 μL) for a total volume of 2 mL / vial.
Data was obtained, in triplicate, for both control and experimental samples. Control (100%) data was obtained from maximally stimulated cells, as the result of growth factor or serum stimulation. Experimental data was obtained from cells maximally stimulated with growth factor or serum and treated with compound. Data are expressed as an IC50 in Table I below.

endothelial cell = conditions: literature (Castellot 1987); cited from earlier work
smooth muscle cell (SMC) = conditions: literature; cited from earlier work
[2] = literature (Reilly 1993); cited from earlier work

CC(=O)Nc1cc(CO[C@@H]2O[C@H](Cn3cnc([N+](=O)[O-])c3)[C@@H](O[C@H]3O[C@@H]4COC(c5ccccc5)O[C@H]4[C@H](O)[C@H]3O)[C@H](O)[C@H]2O)ccc1C (stereo partly drawn) [Example 1, N-(5-{[4',6'-O-Benzylidene-6-deoxy-6-(4-nitro-1H-imidazol-1-yl)-β-D-maltosyl-oxy]-methyl}-2-methyl-phenyl)-acetamide]
IC50 [1]: 11000 nM

CC(=O)Nc1cc(CO[C@@H]2O[C@H](Cn3cnc([N+](=O)[O-])c3)[C@@H](O[C@H]3O[C@@H]4COC(c5ccccc5)O[C@H]4[C@H](OC(C)=O)[C@H]3OC(C)=O)[C@H](OC(C)=O)[C@H]2OC(C)=O)ccc1Cl (stereo partly drawn) [Example 2, N-(5-{[2,3,2',3'-Tetra-O-acetyl-4',6'-O-benzylidene-6-deoxy-6-(4-nitro-1 H-imidazol-1-yl)-β-D-maltosyl]-oxy-methyl}-2-chloro-phenyl)-acetamide]
IC50 [1]: 807 nM

CC(=O)Nc1cc(CO[C@@H]2O[C@H](Cn3cnc([N+](=O)[O-])c3)[C@@H](O[C@H]3O[C@@H]4COC(c5ccccc5)O[C@H]4[C@H](O)[C@H]3O)[C@H](O)[C@H]2O)ccc1Cl (stereo partly drawn) [Example 3, N-(5-{[4',6'-O-Benzylidene-6-deoxy-6-(4-nitro-1H-imidazol-1-yl)-β-D-maltosyl]-oxy-methyl}-2-chloro-phenyl)-acetamide]
IC50 [1]: 1850 nM

CC(=O)Nc1cc(CO[C@@H]2O[C@H](CI)[C@@H](O[C@H]3O[C@@H]4COC(c5ccccc5)O[C@H]4[C@H](OC(C)=O)[C@H]3OC(C)=O)[C@H](OC(C)=O)[C@H]2OC(C)=O)ccc1Cl (stereo partly drawn) [Example 4, N-{5-[(2,2',3,3'-Tetra-O-acetyl-4',6',-O-benzylidene-6-deoxy-6-iodo-β-D-maltosyl)-oxy-methyl]-2-chloro-phenyl}-acetamide]
IC50 [1]: 200 nM

CC(=O)Nc1cc(CO[C@@H]2O[C@H](CI)[C@@H](O[C@H]3O[C@@H]4COC(c5ccccc5)O[C@H]4[C@H](O)[C@H]3O)[C@H](O)[C@H]2O)ccc1Cl (stereo partly drawn) [Example 5, N-{5-[(4',6',-O-Benzylidene-6-deoxy-6-iodo-β-D-maltosyl)-oxy-methyl]-2-chloro-phenyl}-acetamide]
IC50 [1]: 1160 nM

CC(=O)Nc1cc(CO[C@@H]2O[C@H](CN3C(=O)c4ccccc4C3=O)[C@@H](O[C@H]3O[C@@H]4COC(c5ccccc5)O[C@H]4[C@H](OC(C)=O)[C@H]3OC(C)=O)[C@H](OC(C)=O)[C@H]2OC(C)=O)ccc1Cl (stereo partly drawn) [Example 6, N-(5-{[2,2',3,3'-Tetra-O-acetyl-4',6'-O-benzylidene-6-deoxy-6-(1,3-dioxo-1,3-dihydro-isoindol-2-yl)-β-D-maltosyl]-oxy-methyl}2-chloro-phenyl)-acetamide]
IC50 [1]: 840 nM

CC(=O)Nc1cc(CO[C@@H]2O[C@H](CN3C(=O)c4ccccc4C3=O)[C@@H](O[C@H]3O[C@@H]4COC(c5ccccc5)O[C@H]4[C@H](O)[C@H]3O)[C@H](O)[C@H]2O)ccc1Cl (stereo partly drawn) [Example 7, N-(5-{[4',6'-O-Benzylidene-6-deoxy-6-(1,3-dioxo-1,3-dihydro-isoindol-2-yl)-β-D-maltosyl]-oxy-methyl}-2-chloro-phenyl)-acetamide]
IC50 [1]: 1590 nM

CC(=O)Nc1cc(CO[C@@H]2O[C@H](CN=[N+]=[N-])[C@@H](O[C@H]3O[C@@H]4COC(c5ccccc5)O[C@H]4[C@H](O)[C@H]3O)[C@H](O)[C@H]2O)ccc1Cl (stereo partly drawn) [Example 8, N-{5-[(6-Deoxy-6-azido-4',6'-O-benzylidene-β-D-maltosyl)-oxy-methyl]-2-chloro-phenyl}-acetamide]
IC50 [1]: 614 nM

heparan sulfate
endothelial cell growth (endothelial cell): able to promote endothelial cell growth
inhibition of SMC proliferation (smooth muscle cell (SMC)): endogenous inhibitors of SMC proliferation

heparin
endothelial cell growth (endothelial cell): able to promote endothelial cell growth
inhibition of SMC proliferation (smooth muscle cell (SMC)): endogenous inhibitors of SMC proliferation

β-cyclodextrin tetradecasulfate
inhibition of SMC proliferation (smooth muscle cell (SMC)): smooth muscle cell proliferation inhibitor
inhibition of restenosis [2]: effective inhibitor of restenosis

From patent publication US6187755A, “Benzylmaltosides as inhibitors of smooth muscle cell proliferation” (American Home Products Corporation, priority 1999, dated 2001)
